# Assay results taken from patent US20020091133A1, “Use of 9-substituted purine analogues and other molecules to stimulate neurogenesis” (Eve M. Taylor, priority 2000, published 2002).
# How the values were obtained:
# [1] = system: neural stem and progenitor cells in the dentate gyrus; assay: Neural stem and progenitor cell proliferation: BrdU labeling in dentate gyrus 24 hr after single AIT-082 dose; format: in vivo; conditions: adult mice, single intraperitoneal dose 0.1-10 mg/kg, perfused at 24 hr; normalized to saline control, two experiments combined (FIG. 2)
# Experimental: In two separate experiments, AIT-082 was administered intraperitoneally to adult mice (5-7 per group) at 0.01-100 mg/kg. Saline was given as a negative control. Starting two hours after AIT-082 administration, animals received four intraperitoneal injections of bromodeoxyuridine (BrdU; 50 mg/kg each) at 3 hr intervals. BrdU is a thymidine analogue that is incorporated into DNA during synthesis and thus labels newly formed cells. Animals were perfused at 24 hr after the AIT-082 administration. This treatment regimen is outlined in FIG. 1.
# Animals were perfused transcardially with 50 mL ice-cold phosphate buffered saline (PBS) and then 100 mL of 4% paraformaldehyde in PBS. Brains were removed, post-fixed in 4% paraformaldehyde for 24 hr at 4° C., and then transferred to 30% sucrose at 4° C. for a minimum of 3 days before sectioning. Coronal sections (40 μm) were prepared using a freezing microtome and stored in cryoprotectant at −20° C. before immunostaining for BrdU.
# Every sixth section through the rostral-caudal extent of the hippocampus was immunostained for BrdU with mouse anti-BrdU paired with a biotinylated goat anti-mouse IgG. Avidin-biotin-horseradish peroxidase (HRP) complex was applied to sections and immunoreactivity visualized by reacting diaminobenzidine with the HRP. Stereological techniques were used to estimate the total number of BrdU-positive cells in the dentate gyrus.
# [2] = system: neural stem and progenitor cells in the dentate gyrus; assay: Neural stem and progenitor cell differentiation: BrdU/NeuN/S100β colocalization in dentate gyrus 42 days after single AIT-082 dose; format: in vivo; conditions: adult mice
# Experimental: AIT-082 was administered intraperitoneally to adult mice (5-7 per group) at a dose of 1 -100 mg/kg. Saline was given as a negative control. Starting two hours after AIT-082 administration, animals received four intraperitoneal injections of bromodeoxyuridine (BrdU; 50 mg/kg each) at 3 hr intervals. Animals were perfused at 42 days after the AIT-082 administration. During these 42 days newly born neural stem cells have enough time to differentiate into neurons, astrocytes and other brain cells. This treatment regimen is outlined in FIG. 3.
# Animals were perfused, brains treated and sections prepared as described for Example 1.
# Every sixth section through the rostral-caudal extent of the hippocampus was immunostained with rat anti-BrdU paired with a Alexa 568 goat anti-rat IgG (red), mouse anti-NeuN (a neuronal marker) paired with Alexa 488 goat anti-mouse IgG (green), and rabbit anti-S100β (an astrocytes marker) paired with Alexa 647 goat anti-rabbit IgG (blue). Stereological techniques were used to estimate the total number of BrdU-positive nuclei in the dentate gyrus and the number of BrdU-positive cells that were also positive for NeuN (i.e indicating newly formed neurons) or S100β (indicating newly formed astrocytes). Cells that were BrdU-positive and not positive for either NeuN or S100β were labeled “other”. […]
smiles,measurement,setting,value
"O=C(CCn1cnc2c(=O)[nH]cnc21)Nc1ccc(C(=O)O)cc1 [AIT-082, N-4-[[3-(6-oxo-1,6-dihydropurin-9-yl)-1-oxopropyl]amino] benzoic acid]",total number of BrdU-positive cells in dentate gyrus,[1],statistically significant increase
same,number of BrdU-positive cells in dentate gyrus,"[2]; single intraperitoneal dose 1 or 10 mg/kg, perfused at 42 days (FIG. 5A)",increase
same,number of new neurons formed in the dentate gyrus (BrdU- and NeuN-positive cells),"[2]; single intraperitoneal dose, perfused at 42 days (FIG. 5B)",significant increase
